Results: ChEMBL document CHEMBL1156092, “Anthranilic sulfonamide CCK1/CCK2 dual receptor antagonists II: tuning of receptor selectivity and in vivo efficacy” (Bioorg Med Chem Lett, 2009)

How the values were obtained:
Rattus norvegicus [1] = assay: Inhibition of CCK8s-stimulated plasma amylase release in rat assessed as reduction in plasma amylase at 30 umol/kg, po dosed 60 mins before 10 nmol/kg, sc CCK8s challenge and measured after 6 hrs; type: functional
[2] = Apparent permeability from apical to basolateral side in human Caco-2 cells; type: ADME, cell-based
[3] = Metabolic stability in human liver microsomes assessed as compound remaining after 15 mins; type: ADME, Microsome; settings: read-out: Stability
[4] = Apparent permeability from basolateral to apical side in human Caco-2 cells; type: ADME, cell-based
Homo sapiens = species: Homo sapiens; assay: Ratio of pKi for human CCK-1R to pKi for human CCK-2R
Rattus norvegicus [5] = assay: Inhibition of iv dosed pentagastrin-stimulated gastric acid secretion in iv dosed anesthetized Ghosh and Schild rat model assessed as decrease in gastric lumen perfusate pH; type: functional, Stomach; settings: for ED50: Rattus norvegicus, Stomach, iv
[6] = biological target: T1, Gastrin/cholecystokinin type B receptor (Homo sapiens, UniProt P32239); assay: Displacement of [125I]-CCK-8S from human CCK-2R after 100 mins by liquid scintillation counting
T1 sequence (P32239 whole entry): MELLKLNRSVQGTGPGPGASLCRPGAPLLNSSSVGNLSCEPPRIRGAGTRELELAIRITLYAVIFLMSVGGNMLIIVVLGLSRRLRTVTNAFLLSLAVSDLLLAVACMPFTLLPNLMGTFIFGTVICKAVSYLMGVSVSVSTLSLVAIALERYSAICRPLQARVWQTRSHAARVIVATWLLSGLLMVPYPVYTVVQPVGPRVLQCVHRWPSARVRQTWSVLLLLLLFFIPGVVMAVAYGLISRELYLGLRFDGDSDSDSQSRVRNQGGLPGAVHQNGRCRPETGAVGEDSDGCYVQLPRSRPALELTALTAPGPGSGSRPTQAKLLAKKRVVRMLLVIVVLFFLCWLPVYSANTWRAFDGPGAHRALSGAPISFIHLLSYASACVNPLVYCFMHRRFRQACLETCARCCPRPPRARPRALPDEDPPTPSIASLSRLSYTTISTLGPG

[7] = Volume of distribution at steady state in rat at 2 umol/kg, iv and 2 umol/kg, po; type: ADME, organism-based; settings: in vivo, read-out: Vdss
[8] = Plasma half life in rat at 2 umol/kg, iv; type: ADME, organism-based
[9] = Plasma clearance in rat at 2 umol/kg, iv; type: ADME, organism-based
[10] = Oral bioavailability in rat at 2 umol/kg; type: ADME, organism-based; settings: in vivo

| SMILES | Papp A→B [2] [×10⁻⁶ cm/s] | remaining at 0.25 h [3] [%] | Papp B→A [4] [×10⁻⁶ cm/s] | Ratio pKi (Homo sapiens) | Ki [6] [nM] | Vd [7] [L/kg] | half-life [8] [h] | clearance [9] [mL/min/kg] | bioavailability [10] [%] | inhibition (INH) (Rattus norvegicus [1]) [%] | pED50 (Rattus norvegicus [5]) | ED50 (Rattus norvegicus [5]) [µmol/kg] |
| --- | --- | --- | --- | --- | --- | --- | --- | --- | --- | --- | --- | --- |
| O=C(N[C@@H](Cc1ccc(F)c(Br)c1)C(=O)O)c1ccc(Br)cc1NS(=O)(=O)c1cccc2nccnc12 | 0.03 | 54 | 4.36 | 1.8 | – | – | – | – | – | 67 | – | – |
| O=C(N[C@@H](Cc1ccc(Cl)c(Cl)c1)C(=O)O)c1ccc(I)cc1NS(=O)(=O)c1cccc2nsnc12 | – | – | – | 0.9 | 25.1 | – | – | – | – | 45 | 5.1 | 7.9 |
| O=C(N[C@@H](Cc1ccc(F)c(Br)c1)C(=O)O)c1cc(Cl)c(Cl)cc1NS(=O)(=O)c1cccc2nsnc12 | 0.02 | 76 | 0.37 | – | – | 0.203 | 6.2 | 2.6 | 21 | 67 | 5.8 | 1.6 |
| O=C(N[C@@H](Cc1ccc(F)c(Br)c1)C(=O)O)c1cc(Cl)c(Cl)cc1NS(=O)(=O)c1cccc2nccnc12 | 0.1 | 65 | 1.05 | 1.4 | – | 0.129 | 7 | 2 | 9 | -5 | – | – |
| O=C(N[C@@H](Cc1ccc(F)c(Br)c1)C(=O)O)c1ccc(Cl)cc1NS(=O)(=O)c1cccc2nccnc12 | 0.04 | 50 | 4.76 | 1.6 | – | 0.145 | 1.5 | 4.1 | 4 | – | – | – |
| O=C(N[C@@H](Cc1ccc(F)c(Br)c1)C(=O)O)c1ccc(Cl)cc1NS(=O)(=O)c1cccc2nsnc12 | 0.04 | 65 | 1.25 | 1.4 | – | 0.105 | 1.3 | 3.1 | 11 | – | – | – |
| O=C(N[C@@H](Cc1ccc(Cl)c(Br)c1)C(=O)O)c1ccc(Br)cc1NS(=O)(=O)c1cccc2nsnc12 | 0.1 | 61 | 0.19 | 1 | – | – | – | – | – | – | – | – |

Further lines, with some results ahead:

| Papp A→B [2] [×10⁻⁶ cm/s] | remaining at 0.25 h [3] [%] | Papp B→A [4] [×10⁻⁶ cm/s] | Ratio pKi (Homo sapiens) | Ki [6] [nM] | Vd [7] [L/kg] | half-life [8] [h] | clearance [9] [mL/min/kg] | bioavailability [10] [%] | SMILES | inhibition (INH) (Rattus norvegicus [1]) [%] | pED50 (Rattus norvegicus [5]) | ED50 (Rattus norvegicus [5]) [µmol/kg] |
| --- | --- | --- | --- | --- | --- | --- | --- | --- | --- | --- | --- | --- |
| – | – | – | 1.5 | – | 0.215 | 6.4 | 3.1 | 14 | O=C(N[C@@H](Cc1ccc(F)c(Br)c1)C(=O)O)c1ccc(I)cc1NS(=O)(=O)c1cccc2nsnc12 | – | – | – |
| 0.1 | 69 | 1.97 | 1 | – | – | – | – | – | O=C(N[C@@H](Cc1ccc(Cl)c(Br)c1)C(=O)O)c1ccc(Br)cc1NS(=O)(=O)c1cccc2nccnc12 | 65 | – | – |
| 0.05 | 47 | 0.34 | 1.6 | – | – | – | – | – | O=C(N[C@@H](Cc1ccc(F)c(Br)c1)C(=O)O)c1ccc(Br)cc1NS(=O)(=O)c1cccc2nsnc12 | – | – | – |
